Measured values reported in patent US10532053B2, “Histone deacetylase inhibitor, and preparation method and use thereof” (GUANGDONG ZHONGSHENG PHARMACEUTICAL CO., LTD, priority 2015, dated 2020).
Like-named read-outs stand apart in the source and are kept apart here.

What was measured:
[1] = test system: B-cell lymphoma Ramos; assay: Cell proliferative activity (MTT / cck-8); type: cell-based; details: Homo sapiens, read-out: Half-Inhibitory Concentration IC50 Ramos
Protocol: (§1) Tumor cell line A375: human melanoma cell; H460: lung adenocarcinoma cell; Hela: human cervical cancer cell; HepG2: human liver cancer cell; and SKOV-3: human ovarian cancer cell, were all purchased from ATCC and cultured to logarithmic phase according to the cultivation protocol recommended by ATCC. The cells in the logarithmic phase were plated onto a 96-well plate at 2000-3000 cells/well; in the case of adherent cells, the cells should be adherent to the wall. […] After that, the cell proliferative activity was determined by MTT assay for the tumor cells representing the solid tumor model and by cck-8 assay for the tumor cells representing the hematologic tumor model.

[2] = test system: Human cervical cancer cell Hela; assay: Cell proliferative activity (MTT / cck-8); type: cell-based
Protocol: as §1

[3] = test system: Human liver cancer cell HepG2; assay: Cell proliferative activity (MTT / cck-8); type: cell-based
Protocol: as §1

[4] = test system: Human lung cancer cell H460; assay: Cell proliferative activity (MTT / cck-8); type: cell-based
Protocol: as §1

[5] = test system: Human ovarian cancer cell SKOV-3; assay: Cell proliferative activity (MTT / cck-8); type: cell-based
Protocol: as §1

[6] = test system: Leukemia K562; assay: Cell proliferative activity (MTT / cck-8); type: cell-based; details: Homo sapiens, read-out: Half-Inhibitory Concentration IC50 K562
Protocol: as §1

[7] = test system: Leukemia MV4-11; assay: Cell proliferative activity (MTT / cck-8); type: cell-based; details: Homo sapiens, read-out: Half-Inhibitory Concentration IC50 MV4-11
Protocol: as §1

[8] = test system: Multiple myeloma RPMI8226; assay: Cell proliferative activity (MTT / cck-8); type: cell-based; details: Homo sapiens, RPMI-8226, read-out: Half-Inhibitory Concentration IC50 RPMI8226
Protocol: as §1

[9] = test system: Multiple myeloma U266; assay: Cell proliferative activity (MTT / cck-8); type: cell-based; details: Homo sapiens, U-266, read-out: Half-Inhibitory Concentration IC50 U266
Protocol: as §1

[10] = test system: Ovarian cancer A2780s; assay: Cell proliferative activity (MTT / cck-8); type: cell-based; details: Homo sapiens, read-out: Half-Inhibitory Concentration IC50 A2780s
[11] = test system: Breast cancer SKBR3; assay: Cell proliferative activity (MTT / cck-8); type: cell-based; details: Homo sapiens, SK-BR-3, read-out: Half-Inhibitory Concentration IC50 SKBR3
[12] = test system: Lung cancer A549; assay: Cell proliferative activity (MTT / cck-8); type: cell-based; details: Homo sapiens, read-out: Half-Inhibitory Concentration IC50 A549
[13] = test system: Colon cancer HCT116; assay: Cell proliferative activity (MTT / cck-8); type: cell-based; details: Homo sapiens, HCT-116, read-out: Half-Inhibitory Concentration IC50 HCT116
[14] = test system: Colon cancer HT29; assay: Cell proliferative activity (MTT / cck-8); type: cell-based; details: Homo sapiens, HT-29, read-out: Half-Inhibitory Concentration IC50 HT29
[15] = test system: HBL-1 cells; assay: Therapeutic effect on the B-cell lymphoma HBL-1 subcutaneous tumor model; type: in vivo, NOD/SCID mice; details: HBL-1 model, 40 mg/kg intragastrically once every other day, 9 times; vs solvent group
[16] = test system: Ramos cells; assay: Therapeutic effect on the B-cell lymphoma Ramos subcutaneous tumor model; type: in vivo, NOD/SCID mice; details: 40 mg/kg intragastrically once every other day, 6 times, vs solvent group
[17] = molecular target: HDAC10 (Homo sapiens, UniProt Q969S8); details: read-out: IC50 HDAC10; Table 4, Class IIb
Protocol: (§2) The HDAC inhibitory activity was determined by fluorescence-coupled acetylated peptide substrate assay (Lys-Ac-AMC). HDAC1 protein was purchased from BPS Bioscience, and the reaction buffer system was a modified tris(hydroxymethyl)aminomethane buffer (pH 7.0). The small molecule compounds of the present invention were prepared by being dissolved in 100% DMSO. HDAC was prepared in a buffer at a certain concentration as an enzyme solution; trypsin and fluorescent group 4-amino-7-coumarin coupled-acetylated peptide (Ac-peptide) substrate were prepared in a buffer at a certain concentration as a substrate solution. The compounds were added into the reaction wells in a 384-well plate at a designed concentration of 10 μM, 1 μM, 0.5 μM, 0.1 μM, 0.05 μM, 0.01 μM, 0.005 μM, 0.001 μM, and 0.00005 μM, respectively, and then 15 μl of the HDAC solution was added into the reaction wells (15 μl of blank buffer to the control well). […] The results were analyzed by GraphPad Prism software and IC50 values were calculated according to the formula: Y=Background Data+(Top Data−Background Data)/(1+10^((Log IC50−X) a curve slope)), where Y: the inhibition rate (%) and X: the concentration of the compound.

[18] = cited from earlier work
[19] = molecular target: T1, HDAC1 (Homo sapiens, UniProt Q13547); assay: HDAC inhibitory activity, fluorescence-coupled acetylated peptide substrate assay (Lys-Ac-AMC); type: biochemical; details: Table 2
T1 construct: purchased BPS Bioscience

[20] = molecular target: T2, HDAC6 (Homo sapiens, UniProt Q9UBN7); assay: HDAC inhibitory activity, fluorescence-coupled acetylated peptide substrate assay; type: biochemical; details: Table 2
T2 sequence (Q9UBN7 1-1215): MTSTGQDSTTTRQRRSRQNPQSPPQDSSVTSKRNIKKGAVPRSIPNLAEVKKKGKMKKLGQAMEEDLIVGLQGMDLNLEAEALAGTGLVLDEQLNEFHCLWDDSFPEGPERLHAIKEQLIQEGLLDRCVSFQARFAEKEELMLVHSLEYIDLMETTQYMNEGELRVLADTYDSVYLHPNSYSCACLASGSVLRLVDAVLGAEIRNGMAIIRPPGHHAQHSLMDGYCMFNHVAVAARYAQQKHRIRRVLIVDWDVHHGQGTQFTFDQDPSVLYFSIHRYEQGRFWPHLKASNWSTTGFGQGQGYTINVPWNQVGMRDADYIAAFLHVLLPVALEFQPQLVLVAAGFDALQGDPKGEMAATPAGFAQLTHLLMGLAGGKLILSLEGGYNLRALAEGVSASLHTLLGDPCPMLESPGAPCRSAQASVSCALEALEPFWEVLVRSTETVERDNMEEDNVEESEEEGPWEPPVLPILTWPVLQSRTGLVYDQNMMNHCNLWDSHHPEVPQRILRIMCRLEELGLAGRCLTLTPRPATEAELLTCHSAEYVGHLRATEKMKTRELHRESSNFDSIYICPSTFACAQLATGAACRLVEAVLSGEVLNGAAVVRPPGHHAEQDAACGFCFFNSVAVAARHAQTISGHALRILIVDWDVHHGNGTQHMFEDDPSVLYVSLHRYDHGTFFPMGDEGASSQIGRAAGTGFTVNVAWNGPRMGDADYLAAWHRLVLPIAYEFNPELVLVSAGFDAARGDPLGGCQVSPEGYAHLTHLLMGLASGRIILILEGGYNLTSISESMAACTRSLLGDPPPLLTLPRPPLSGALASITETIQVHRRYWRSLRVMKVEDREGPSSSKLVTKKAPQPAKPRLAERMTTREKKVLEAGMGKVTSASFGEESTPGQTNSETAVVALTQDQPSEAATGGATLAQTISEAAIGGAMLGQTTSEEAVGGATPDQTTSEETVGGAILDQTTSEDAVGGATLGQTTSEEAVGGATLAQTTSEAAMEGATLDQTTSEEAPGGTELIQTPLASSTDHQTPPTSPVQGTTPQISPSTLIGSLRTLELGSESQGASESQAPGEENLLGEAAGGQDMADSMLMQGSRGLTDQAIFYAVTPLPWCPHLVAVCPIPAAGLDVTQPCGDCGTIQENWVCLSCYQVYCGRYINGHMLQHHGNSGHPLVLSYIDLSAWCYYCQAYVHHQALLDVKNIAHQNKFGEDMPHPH
Protocol: as §2

[21] = test system: Human melanoma A375; assay: Cell proliferative activity (MTT / cck-8); type: cell-based; details: A-375, incubated for 96 hours, read-out: Half-Inhibitory Concentration IC50 Human melanoma A375
Protocol: as §1

[22] = test system: HCT116 cells; assay: Therapeutic effect on the colon cancer HCT116 model (intravenous)
[23] = molecular target: T3, HDAC8 (Homo sapiens, UniProt Q9BY41); assay: HDAC inhibitory activity, fluorescence-coupled acetylated peptide substrate assay; details: IC50 HDAC8, Table 2
T3 sequence (Q9BY41 1-377): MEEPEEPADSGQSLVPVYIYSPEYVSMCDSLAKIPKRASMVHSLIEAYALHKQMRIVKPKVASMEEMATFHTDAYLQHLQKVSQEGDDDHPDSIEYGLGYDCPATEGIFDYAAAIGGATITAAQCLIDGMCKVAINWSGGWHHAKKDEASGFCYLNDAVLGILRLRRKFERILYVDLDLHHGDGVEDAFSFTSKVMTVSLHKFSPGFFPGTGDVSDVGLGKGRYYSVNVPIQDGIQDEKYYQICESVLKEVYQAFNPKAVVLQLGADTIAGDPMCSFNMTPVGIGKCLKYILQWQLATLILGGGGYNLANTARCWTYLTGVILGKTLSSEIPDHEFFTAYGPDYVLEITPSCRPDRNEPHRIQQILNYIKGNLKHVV
Protocol: as §2

[24] = test system: acetylation level of HDAC substrate (Ac-α-tubulin, Ac-H3); assay: Western blot assay for detecting the level of acetylated proteins; type: cell-based; details: HCT116 cells (FIG. 3) or MV4-11 cells (FIG. 4)
Protocol: The compounds or the positive control compound were added into each group of cells already adherent to the walls (2×10^6 HCT116 cells or 5×10^6 MV4-11 cells) at a designed concentration. After treatment for 4 hours, trypsin was added for digestion, followed by collecting the cells. After washing with cold PBS twice, the cells were lysed by adding RIPA lysis solution (which was purchased from Beyotime, Art. No.: P0013B, adding 1 mM PMSF before use), allowing for lysis on ice for 30 minutes while vortexing at intervals. The lysate was subjected to ultrasonic treatment on an ice bath (ultrasonicated for 3 seconds and repeated 5 times for each group at an interval of 10 seconds). The supernatant was collected by centrifugation at 12,000 g for 20 min at 4° C. and then mixed the SDS-PAGE loading buffer (purchased from Beyotime, Art. No.: P0015F). The mixture was heated in boiling water for 5 minutes to obtain a protein sample. The protein concentration of the sample was quantified by BCA method. 20 […] total protein from each group was subjected to 15% SDS-PAGE electrophoresis, and 5μl of a pre-stained protein marker (purchased from Thermo, Art. No.: 26616) was loaded to an additional selective lane in order to compare protein molecular weights as well as to detect the transmembrane result. When the bromophenol blue bands ran close to the bottom of the gel, the electrophoresis was terminated and the proteins on the gel were transferred to a PVDF membrane at a pore size of 0.22 μm. After 1.5 hours of transmembrane at a constant current of 200 mA, the PVDF membrane was removed and blocked in 5% skimmed milk for 1 hour. After completion of blocking, the membrane was incubated with the primary antibody (Ac-H3 antibody was purchased from Santa Cruz, Art. No.: sc-56616; Ac-α-tubulin antibody was purchased from Santa Cruz, Art. No.: sc-23950) overnight at 4° C. and then washed with TBS/T for 10 minutes for 3 times. The membrane was incubated with the horseradish peroxidase-coupled secondary antibody at room temperature for 1 hour, and then washed with TBS/T for 10 minutes for 3 times. After washing with TBS for 5 minutes, the membrane was exposed and developed by using a film in the darkroom. The detected GAPDH protein was an internal reference protein (GAPDH antibody was purchased from ZSGB-Bio, Art. No.: TA-08).

[25] = test system: A2780s cells; details: A2780s model, 100 mg/kg intragastrically once every other day, 16 times

T1 sequence (Q13547 whole entry): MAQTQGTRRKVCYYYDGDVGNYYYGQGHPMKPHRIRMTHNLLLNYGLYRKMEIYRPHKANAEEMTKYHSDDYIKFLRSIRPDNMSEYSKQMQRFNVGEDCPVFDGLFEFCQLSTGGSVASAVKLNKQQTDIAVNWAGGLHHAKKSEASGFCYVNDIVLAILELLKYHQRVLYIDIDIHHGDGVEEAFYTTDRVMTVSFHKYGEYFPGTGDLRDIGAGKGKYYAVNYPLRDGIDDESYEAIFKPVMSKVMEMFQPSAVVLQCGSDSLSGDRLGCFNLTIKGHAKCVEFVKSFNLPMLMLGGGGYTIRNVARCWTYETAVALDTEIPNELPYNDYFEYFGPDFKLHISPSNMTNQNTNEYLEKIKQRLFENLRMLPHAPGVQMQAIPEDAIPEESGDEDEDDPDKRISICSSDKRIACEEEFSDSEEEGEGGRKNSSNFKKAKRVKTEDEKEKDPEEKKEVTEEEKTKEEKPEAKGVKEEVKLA
Sequence of HDAC10 (Q969S8 whole entry): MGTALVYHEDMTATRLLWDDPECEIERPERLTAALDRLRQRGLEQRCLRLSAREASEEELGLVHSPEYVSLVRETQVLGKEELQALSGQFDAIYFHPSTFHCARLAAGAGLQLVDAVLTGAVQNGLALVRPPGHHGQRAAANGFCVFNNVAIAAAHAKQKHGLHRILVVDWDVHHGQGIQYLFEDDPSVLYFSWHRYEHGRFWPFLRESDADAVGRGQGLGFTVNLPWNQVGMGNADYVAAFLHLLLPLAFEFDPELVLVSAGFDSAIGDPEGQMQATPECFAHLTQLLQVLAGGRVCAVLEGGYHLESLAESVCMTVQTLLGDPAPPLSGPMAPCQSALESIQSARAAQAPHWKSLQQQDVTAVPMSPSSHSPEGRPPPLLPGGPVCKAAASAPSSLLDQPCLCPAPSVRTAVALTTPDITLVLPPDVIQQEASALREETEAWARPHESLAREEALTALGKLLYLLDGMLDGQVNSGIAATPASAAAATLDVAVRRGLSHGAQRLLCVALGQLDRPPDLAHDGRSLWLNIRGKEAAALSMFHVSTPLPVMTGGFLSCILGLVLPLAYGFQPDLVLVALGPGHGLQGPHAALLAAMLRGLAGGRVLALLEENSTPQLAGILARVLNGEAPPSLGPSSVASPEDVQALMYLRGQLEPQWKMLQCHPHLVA

Compound: O=C(CCCCCCNC(=O)c1cnc(N(c2ccccc2)c2ccccc2)nc1)NO [ACY-1215, reference compound]
- IC50 [1]: > 5 µM
- IC50 ([2]; Cervical cancer, Table 5, read-out: Half-Inhibitory Concentration IC50 Hela): > 5 µM
- IC50 ([3]; Liver cancer, Table 5, read-out: Half-Inhibitory Concentration IC50 HepG2): > 5 µM
- IC50 ([4]; NCI-H460, Lung cancer, Table 5, read-out: Half-Inhibitory Concentration IC50 H460): > 5 µM
- IC50 ([5]; SK-OV-3, Ovarian cancer, Table 5, read-out: Half-Inhibitory Concentration IC50 SKOV-3): > 5 µM
- IC50 [6]: > 5 µM
- IC50 [7]: > 5 µM
- IC50 [8]: 1.47 ± 0.31 µM
- IC50 [9]: > 5 µM
- IC50 [10]: > 5 µM
- IC50 [11]: > 5 µM
- IC50 [12]: > 5 µM
- IC50 [13]: > 5 µM
- IC50 [14]: > 5 µM
- tumor inhibitory rate [15]: 26.75%
- tumor inhibitory rate [16]: no inhibitory effects of tumor growth
- IC50 [17]: 0.194 ± 0.054 µM

Compound: Nc1ccccc1NC(=O)c1ccc(CNC(=O)OCc2cccnc2)cc1 [Entinostat]
- elimination half-life in human body ([18]; human, clinical trials): ~100 h

Compound: COc1ccc(N(C)c2nc(C)nc3ccccc23)cc1OCC(=O)NO [III-1, N-hydroxy-2-(2-methoxy-5-(methyl(2-methyl-4-quinazolinyl)amino)phenoxy) acetamide]
- IC50 [19]: > 1 µM
- IC50 [20]: > 1 µM
- IC50 ([2]; incubated for 96 hours, read-out: Half-Inhibitory Concentration IC50 Human cervical cancer cell Hela): < 0.01 µM
- IC50 ([3]; incubated for 96 hours, read-out: Half-Inhibitory Concentration IC50 Human liver cancer cell HepG2): < 0.01 µM
- IC50 ([4]; NCI-H460, incubated for 96 hours, read-out: Half-Inhibitory Concentration IC50 Human lung cancer cell H460): < 0.01 µM
- IC50 [21]: 0.01 to 0.1 µM
- IC50 ([5]; SK-OV-3, incubated for 96 hours, read-out: Half-Inhibitory Concentration IC50 Human ovarian cancer cell SKOV-3): < 0.01 µM
- survival time of mice ([22]; 10 mg/kg intravenously once every other day, 9 times, vs blank control, P<0.01): significantly prolonged the survival time of mice
- effect prolonging the survival time compared with positive control group ([22]; 10 mg/kg intravenously, SAHA 50 mg/kg intraperitoneally): superior to that of the positive control group
- IC50 [23]: > 1 µM

Compound: O=C(CCCCCCC(=O)Nc1ccccc1)NO [SAHA, reference compound]
- acetylation of H3 (Ac-H3) [24]: up-regulate acetylation of tubulin and H3
- acetylation of α-tubulin [24]: up-regulate acetylation of tubulin and H3
- death of mice during the experiment [25]: one mouse died
- toxic side effects ([18]; clinical data): thrombosis and neurotoxicity

Compound: FK228
- incidence of medication-related adverse reactions above Phase III ([18]; clinical data): up to 66%
- toxic side effects ([18]; clinical data): cardiotoxicity
